Measured values published in article PMC10943337 (Heliyon, 2024).

Target: α-glucosidase (EC3.2.1.20)
Assay: p-nitrophenyl-d-glucopyranoside hydrolysis, absorbance at […] nm, pH […] °C
Type: biochemical, Saccharomyces cerevisiae
Settings: read-out: IC50 μM

IC50: 45.9 ± 1.98 µM
Structure (SMILES): COc1c(-c2ccc(O)c(O)c2)oc2c(O)c(O)ccc2c1=O [compound 1, 2-(3,4-dihydroxyphenyl)-7,8-dihydroxy-3-methoxy-4H-chromen-4-one]
